How the values were obtained:
Format in all cases: cell-based, Acinetobacter baumannii
A. baumannii isolates [1] = test: Individual antimicrobial susceptibility testing (MIC, broth microdilution, CLSI)
Protocol: In the antimicrobial susceptibility testing 77 isolates of A. baumannii (from 2010) in the following sub-groups were tested: • 22 isolates generally susceptible to antimicrobial agents (“Sus”) • 20 carbapenem-resistant isolates (e.g. “MPM-R”) • 20 aminoglycoside-resistant isolates (e.g. “AMK-R”) • 15 colistin-resistant isolates. (e.g. “COL-R”)
Minimum inhibitory concentration (MIC) endpoints were determined by broth microdilution according to CLSI guidelines (CLSI, M7-A8 & M100-S22, 2012). Panels were prepared at IHMA using cation-adjusted Mueller-Hinton broth. Colonies were taken directly from a second-pass culture plate and prepared to a suspension equivalent of the 0.5 McFarland standard using normal saline.
Testing was carried out as described in the General Procedures to determine minimum inhibitory concentration (MIC) end points for compound (I), amikacin, colistin, gentamicin, meropenem and tobramycin, for 77 A. baumannii isolates. Under the “MIC (μg/ml)” heading, the first column (Range) indicates the MIC end points for the particular number (N) of isolates tested, the second column (50%) provides an estimate of the concentration that inhibits 50% (MIC50) of bacterial isolates tested, and the third column (90%) provides an estimate of the concentration that inhibits 90% of the bacterial isolates tested.

A. baumannii isolates [2] = test: Checkerboard testing (compound (I)/antibacterial agent interaction, FIC index)
Protocol: Checkerboard interaction studies were performed using 5 isolates from each of the sub-groups and time kill studies were performed using 3 isolates from each sub-group.
Checkerboards (20 isolates, 5 per sub-group) were prepared so as to contain multiple concentrations of compound (I) with different additional antibacterial agents (amikacin, gentamicin, colistin, meropenem and tobramycin) as follows:
Serial two-fold dilutions of the antimicrobial agents alone or in combination in wells of 96 well microtiter plates were inoculated with the appropriate inoculum so that each well contained approximately 4-5×10^4 CFU/ml. Plates were incubated at 35° C. for 16-20 hours. Combination concentrations were tested between 0.25×MIC and 2×MIC. Growth and sterility controls were also included in each plate.
Synergy, indifference and antagonism were calculated based upon the use of the fractional inhibitory concentration (FIC) indices as described by Pillai, Moellering & Eliopoulos (2005) whereby:
Synergism=FIC index of ≦0.5 Indifference=FIC index >1 but ≦4 Additivity >0.5 to 1 Antagonism=FIC index of >4
Checkerboard studies were carried out as described in General Procedures using twenty different A. baumannii isolates with 5 per sub-group of: susceptible, amikacin-resistant, colistin-resistant and meropenem-resistant.

A. baumannii isolates [3] = test: Time kill study (Example 4); conditions: for Time to kill 99.9%: alone
Protocol: A total of 12 isolates were tested (three per sub-group either susceptible, meropenem-resistant, amikacin-resistant or colistin-resistant). Two combinations were tested per isolate. Time-kill kinetics were performed by testing compound (I) and an additional antibacterial agent (amikacin, colistin and meropenem) individually at 1× and 4× the corresponding MIC of each antibacterial agent. […] Samples were taken at 0, 2, 4, 8 and 24 hours in order to determine colony forming units (CFU/mL).
Time-kill studies were carried out as described in General Procedures using combinations of compound (I) with amikacin, meropenem and colistin, respectively.

[4] = test system: A. baumannii CIP 5377, CIP 7034, AYE, SAN, RCH; test: Antimicrobial susceptibility testing (MIC, broth microdilution, EUCAST; Example 5)
Source text: A. baumannii CIP 5377 (ATCC® 17978): low cephalosporinase producing strain, susceptible to meropenem and amikacin, isolated in an infected patient
A. baumannii CIP 7034: low cephalosporinase producing strain, susceptible to meropenem and amikacin A. baumannii AYE ATCC® BAA1710™: extended spectrum beta-lactamase producing strain susceptible to meropenem and resistant to amikacin
A. baumannii SAN-94040 (SAN): cephalosporinase-overproducing strain, susceptible to meropenem and intermediate to amikacin and resistant to fluoroquinolones, isolated from blood cultures of an intensive care patient with nosocomial pneumonia from North Africa (Algeria).
A. baumannii RCH-69: cephalosporinase producing strain; low susceptibility to imipenem and resistant to amikacin.

[5] = Amikacin-resistant isolates, N=20
[6] = Colistin-resistant isolates, N=15
[7] = Meropenem-resistant isolates, N=20

colistin
mode MIC (A. baumannii isolates [1]; 77 isolates, FIG. 1 and 2): lowest mode MIC | MIC 50% (A. baumannii isolates [1]; All isolates, N=77): 0.5 µg/mL | MIC 90% (A. baumannii isolates [1]; All isolates, N=77): 8 µg/mL | MIC 50% (A. baumannii isolates [1]; [5]): 0.5 µg/mL | MIC 90% (A. baumannii isolates [1]; [5]): 1 µg/mL | MIC Range (A. baumannii isolates [1]; [5]): 0.25 to 2 µg/mL | MIC 50% (A. baumannii isolates [1]; [6]): 8 µg/mL | MIC 90% (A. baumannii isolates [1]; [6]): >32 µg/mL | MIC 50% (A. baumannii isolates [1]; [7]): 0.5 µg/mL | MIC 90% (A. baumannii isolates [1]; [7]): 1 µg/mL | MIC Range (A. baumannii isolates [1]; [7]): 0.25 to 1 µg/mL | MIC 50% (A. baumannii isolates [1]; Susceptible isolates, N=22): 0.5 µg/mL | MIC 90% (A. baumannii isolates [1]; Susceptible isolates, N=22): 0.5 µg/mL | MIC Range (A. baumannii isolates [1]; Susceptible isolates, N=22): 0.06 to 1 µg/mL | MIC (A. baumannii isolates [2]; A. baumannii 441142, colistin-resistant): 8 µg/mL | MIC (A. baumannii isolates [2]; A. baumannii 441160, colistin-resistant): 4 µg/mL | MIC (A. baumannii isolates [2]; A. baumannii 463996, colistin-resistant): 4 µg/mL | MIC (A. baumannii isolates [2]; A. baumannii 466936, colistin-resistant): 8 µg/mL | MIC (A. baumannii isolates [2]; A. baumannii 517303, colistin-resistant): >1024 µg/mL | MIC (A. baumannii isolates [2]; A. baumannii 618649, meropenem-resistant): 0.5 µg/mL | MIC (A. baumannii isolates [2]; A. baumannii 625917, meropenem-resistant): 0.5 µg/mL | MIC (A. baumannii isolates [2]; A. baumannii 628760, susceptible): 0.5 µg/mL | MIC (A. baumannii isolates [2]; A. baumannii 637723, amikacin-resistant): 0.5 µg/mL | MIC (A. baumannii isolates [2]; A. baumannii 638115, amikacin-resistant): 0.5 µg/mL | MIC (A. baumannii isolates [2]; A. baumannii 650216, meropenem-resistant): 0.25 µg/mL | MIC (A. baumannii isolates [2]; A. baumannii 655932, amikacin-resistant): 0.5 µg/mL | MIC (A. baumannii isolates [2]; A. baumannii 661954, amikacin-resistant): 1 µg/mL | MIC (A. baumannii isolates [2]; A. baumannii 667848, meropenem-resistant): 0.5 µg/mL | MIC (A. baumannii isolates [2]; A. baumannii 668116, susceptible): 1 µg/mL | MIC (A. baumannii isolates [2]; A. baumannii 668239, amikacin-resistant): 0.5 µg/mL | MIC (A. baumannii isolates [2]; A. baumannii 670348, susceptible): 0.5 µg/mL | MIC (A. baumannii isolates [2]; A. baumannii 671050, meropenem-resistant): 0.5 µg/mL | MIC (A. baumannii isolates [2]; A. baumannii 672190, susceptible): 0.5 µg/mL | MIC (A. baumannii isolates [2]; A. baumannii 674340, susceptible): 0.5 µg/mL | Time to kill 99.9% (A. baumannii isolates [3]; AMK-R-1, 1xMIC): 1.4 h | Time to kill 99.9% (A. baumannii isolates [3]; AMK-R-1, 4xMIC): 1.3 h | Time to kill 99.9% (A. baumannii isolates [3]; AMK-R-2, 1xMIC): 2.3 h | Time to kill 99.9% (A. baumannii isolates [3]; AMK-R-2, 4xMIC): 1.8 h | Time to kill 99.9% (A. baumannii isolates [3]; AMK-R-3, 1xMIC): >24 h^ | Time to kill 99.9% (A. baumannii isolates [3]; AMK-R-3, 4xMIC): 2.9 h | Time to kill 99.9% (A. baumannii isolates [3]; COL-R-1, 1xMIC): 2.8 h | Time to kill 99.9% (A. baumannii isolates [3]; COL-R-1, 4xMIC): 2.3 h | Time to kill 99.9% (A. baumannii isolates [3]; COL-R-2, 1xMIC): >24 h^ | Time to kill 99.9% (A. baumannii isolates [3]; COL-R-2, 4xMIC): >24 h | Time to kill 99.9% (A. baumannii isolates [3]; COL-R-3, 1xMIC): 2.7 h | Time to kill 99.9% (A. baumannii isolates [3]; COL-R-3, 4xMIC): 2.1 h | Time to kill 99.9% (A. baumannii isolates [3]; MPM-R-1 (second line, Table 8 r14), 1xMIC): 1.3 h | Time to kill 99.9% (A. baumannii isolates [3]; MPM-R-1 (second line, Table 8 r14), 4xMIC): 1.6 h | Time to kill 99.9% (A. baumannii isolates [3]; MPM-R-1, 1xMIC): 5.0 h | Time to kill 99.9% (A. baumannii isolates [3]; MPM-R-1, 4xMIC): 8.1 h | Time to kill 99.9% (A. baumannii isolates [3]; MPM-R-3, 1xMIC): 2 h | Time to kill 99.9% (A. baumannii isolates [3]; MPM-R-3, 4xMIC): 5.1 h | Time to kill 99.9% (A. baumannii isolates [3]; Sus-1, 1xMIC): >24 h^ | Time to kill 99.9% (A. baumannii isolates [3]; Sus-1, 4xMIC): >24 h | Time to kill 99.9% (A. baumannii isolates [3]; Sus-2, 4xMIC): 6.3 h | Time to kill 99.9% (A. baumannii isolates [3]; Sus-3, 1xMIC): 1.6 h | Time to kill 99.9% (A. baumannii isolates [3]; Sus-3, 4xMIC): 3.6 h | effect in time-kill studies when tested alone (A. baumannii isolates [3]; alone at 1× or 4×MIC): generally bactericidal | MIC (A. baumannii isolates [3]; isolate AMK-R-1): 0.5 µg/mL | MIC (A. baumannii isolates [3]; isolate AMK-R-2): 0.5 µg/mL | MIC (A. baumannii isolates [3]; isolate AMK-R-3): 0.25 µg/mL | MIC (A. baumannii isolates [3]; isolate COL-R-1): 8 µg/mL | MIC (A. baumannii isolates [3]; isolate COL-R-2): 4 µg/mL | MIC (A. baumannii isolates [3]; isolate COL-R-3): 16 µg/mL | MIC (A. baumannii isolates [3]; isolate MPM-R-1): 0.25 µg/mL | MIC (A. baumannii isolates [3]; isolate MPM-R-3): 1 µg/mL | MIC (A. baumannii isolates [3]; isolate Sus-1): 1 µg/mL | MIC (A. baumannii isolates [3]; isolate Sus-2): 0.5 µg/mL | MIC (A. baumannii isolates [3]; isolate Sus-3): 0.25 µg/mL | MIC (A. baumannii isolates [3]; isolate printed MPM-R-1 (second such line of Table 8, r14)): 1 µg/mL | MIC ([4]; A. baumannii AYE): 1 µg/mL | MIC ([4]; A. baumannii CIP 5377): 0.5 µg/mL | MIC ([4]; A. baumannii CIP 7034): 0.5 µg/mL | MIC ([4]; A. baumannii RCH): 0.5 µg/mL | MIC ([4]; A. baumannii SAN): 1 µg/mL
